Legend:
Assay type in all cases: in vivo, C. elegans
[1] = test system: metallothionein gene (mtl-2) promoter reporter; assay: two-color nematode biosensor panel, plate reader assay, mtl-2 reporter; settings: cadmium 1 mM, NGM plates, 15 hrs; population-normalized change relative to unexposed control
From the text: (§1) Responses are population-normalized changes relative to unexposed control. Error bars indicate […] of 2 to 6 independent measurements. The label “2 line” indicates data derived from combining responses of two independently-derived MosSCI lines for the same reporter.
(§2) The seven different promoters used to create the lines were obtained from genes involved in oxidative stress response. Two genes used were alpha cystallins which respond to cytoplasmic heat shock (hsp-16.2 and hsp-16.41) (David et al. Environ. Toxicol. Chem 2003 January; 22(1):111-118; Hong et al. J. Mol. Biol 2004 November; 344(2):369-381; Candido E P M. Prog. Mol. Subcell. Biol 2002; 28:61-78; Dengg et al. J Pharmacol Toxicol Methods 2004 December; 50(3):209-214; and Strayer et al. FASEB J 2003 December; 17(15):2305-2307). […] The resulting hsRFP reporter construct expresses red fluorescence in cell nuclei. […]
(§3) Changes in expression were quantified with a plate reader assay. […]

[2] = test system: hsp-16's (hsp-16.2, hsp-16.41) promoter reporters; assay: two-color nematode biosensor panel, plate reader assay, hsp-16 reporters; settings: cadmium 1 mM, NGM plates, 15 hrs; population-normalized change relative to unexposed control
From the text: as §1, §2, §3

nematode population = assay: chronic toxin exposure, effect on nematode population size; settings: chronic exposure for 72 hrs, various concentrations
Description: FIGS. 4A, B, and C show the population effects of chronic toxin exposure.
Advantageously, the transgenic animals described in these examples can have a control reporter (e.g., constitutively expressed). Exposure to some selected agents or toxins can lead to shortened life-span, lower brood sizes or other effects that need to be controlled. The problem becomes most pronounced in chronic assays. […] Thus, it was determined a control for population mass differences between assay wells is desirable. Introduction of a second constitutively expressed reporter gene can be used to control for various population differences.

ugt-1 promoter reporter = assay: two-color nematode biosensor panel, plate reader assay, ugt-1 reporter; settings: cadmium 1 mM, NGM plates, 15 hrs; population-normalized change relative to unexposed control
From the text: as §1, §2, §3

hsp-4 promoter reporter = assay: two-color nematode biosensor panel, plate reader assay, hsp-4 reporter; settings: cadmium 1 mM, NGM plates, 15 hrs; population-normalized change relative to unexposed control
From the text: as §1, §2, §3

Phsp-16::hRFP reporter = assay: fluorescent plate reader assay of toxin dosage sensitivity, hsp-16::hRFP nematodes; settings: 24 hr exposure, ~600 worms per well, assayed in triplicate; read-out: EC50 of red fluorescence response of Phsp-16::hRFP reporter
From the text: FIGS. 3A, B, and C show the fluorescence plate-reader sensitivity and toxin response.
For instance, a protein homeostasis reporter was created by fusing heat shock protein to a nuclear localized red fluorescent protein (hsp-16.42::hRFP)(the materials and methods for the construction of the transgenic organism are described in more detail in the examples below). Exposure to heat toxicity generates induction of nuclear localization. This heat shock gene reporter was screened for gene induction capacity using a heat-shock protocol. The hsp-16::hRFP construct is exposed to a 1 hr incubation at 30 C. Gene induction was screened 4 to 24 hrs after heat shock. Significant red fluorescence is observed in the nuclei of heat-shocked worm relative to control (FIG. 5).
Toxin sensitivity of hsp-16 was confirmed with exposure to heavy metals and metalloids. To develop a rapid screen for the hsp-16::hRFP expression, a fluorescent plate reader assay was developed. To test the sensitivity of this assay, a titrating concentration of nematodes were exposed to heat shock. The worms were transferred to a 96 well plate and red fluorescence was quantified. Good sensitivity for a red fluorescence signal occurs at concentrations of 50 or more worms (FIG. 3A). Next, the toxin dosage sensitivity was measured.

[Cl][Cd][Cl] [cadmium, cadmium chloride]
induction of metallothionein gene expression (reporter) [1]: primarily induced | induction of expression from hsp-16's reporters [2]: only mildly induced | effect on population size (nematode population): significant population effects | induction of expression from ugt-1 reporter (ugt-1 promoter reporter): only mildly induced | induction of expression from hsp-4 reporter (hsp-4 promoter reporter): only mildly induced | EC50 (Phsp-16::hRFP reporter): ~200 µM

sodium bis-arsenite [arsenic]
EC50 (Phsp-16::hRFP reporter): ~1500 µM

Reference: patent publication US12171203B2, “Transgenic biosensor” (KDT, Inc., priority 2011, dated 2024)
